{"source": "patent US20160220569A1", "about": "“CDK4/6 Inhibitor Dosage Formulations For The Protection Of Hematopoietic Stem And Progenitor Cells During Chemotherapy” (G1 Therapeutics, Inc., priority 2015, published 2016)", "assay": "14-day oral gavage toxicokinetic study in rats", "type": "in vivo", "conditions": "male, rat, plasma, po; for concentration at 0.5 h / concentration at 1 h / concentration at 4 h / concentration at 8 h / concentration at 12 h / concentration at 24 h / concentration at […] / concentration at 2 h: rats; for half-life: read-out: t½ (converted)", "description": "Plasma was obtained from blood samples collected from rats in a composite sampling scheme, with 3 samples collected per sex, per dose, at each target collection time, as illustrated in Table 21 to Table 25. Samples were collected from the vehicle control group on Day 1 and Day 14 at 3 hour after administration. […] Blood samples were collected in tubes containing K3EDTA as an anticoagulant and placed on ice until processed to plasma via centrifugation. Samples were stored frozen at −80° C. until shipment to the bioanalytical laboratory for analysis.\nThe following parameters were determined:\nCmax: Maximum observed plasma concentration (ng/mL).\nA value of 0 ng/mL was assigned to all values below the lower limit of quantitation (BLQ, <10.0 ng/mL).\nAUC(0-inf): Area under the plasma concentration vs. time curve extrapolated from 0 to infinity (ng*h/mL), calculated as AUC(0-t)+AUC(t-inf) where AUC(t-inf) is calculated as last measurable concentration (CLast) divided by ke, where ke is the elimination rate constant determined by linear regression of the last three analytically measured points on the log plasma concentration vs. time curve. The selection criteria of the data points for inclusion in the calculation of ke required that at least three data points representing the terminal phase (after Tmax) were regressed and that R2≧0.850 when rounded.\nCL: Clearance (L/h/kg), calculated as the dose divided by AUC(0-t).\nVd: Volume of distribution (L/kg), calculated as dose divided by the product of ke and AUC(0-inf).\nVdss: Steady state volume of distribution (L/kg), calculated as clearance […] mean residence time, where mean residence time is calculated as the area under the first moment curve divided by AUC(0-t).\nt½: Elimination half-life (h), calculated as ln(2)/ke, where ke is the elimination rate constant determined by linear regression. Half-life was defined as not determined if regression criteria (specified in AUC(0-inf) above) were not met.\nCmax/Dose: Normalized Cmax, calculated as Cmax divided by total dose.\nAUC/Dose: Normalized AUC, calculated as AUC(0-t) divided by total dose.\nii. Statistical Analysis Mean and standard deviation (SD) were calculated in Watson. Values of BLQ were assigned a value of 0 ng/mL for mean calculations. Concentration values and derived TK parameters were reported to three significant figures.", "key": {"[1]": {"conditions": "5 mg/kg, oral 5 mg/kg, Study Day 1, Male"}, "[2]": {"conditions": "5 mg/kg, oral 5 mg/kg, Study Day 14, Male"}}, "note": "Like-named read-outs stand apart in the source and are kept apart here.", "data": [{"smiles": "CN1CCN(c2ccc(Nc3ncc4cc5n(c4n3)C3(CCCCC3)CNC5=O)nc2)CC1", "note": "[Compound 1, 2′-((5-(4-methylpiperazin-1-yl)pyridin-2-yl)amino)-7′,8′-dihydro-6′H-spiro[cyclohexane-1,9′-pyrazino[1′,2′:1,5]pyrrolo[2,3-d]pyrimidin]-6′-one]", "values": [{"measurement": "concentration at 0.5 h", "setting": "5 mg/kg, Individual Compound 1 Plasma Concentration, daily oral 5 mg/kg, Day 1, Male, 0.5 h", "result": 225, "unit": "ng/mL"}, {"measurement": "concentration at 1 h", "setting": "5 mg/kg, Individual Compound 1 Plasma Concentration, daily oral 5 mg/kg, Day 1, Male, 1 h", "result": 244, "unit": "ng/mL"}, {"measurement": "concentration at 4 h", "setting": "5 mg/kg, Individual Compound 1 Plasma Concentration, daily oral 5 mg/kg, Day 1, Male, 4 h", "result": 562, "unit": "ng/mL"}, {"measurement": "concentration at 8 h", "setting": "5 mg/kg, Individual Compound 1 Plasma Concentration, daily oral 5 mg/kg, Day 1, Male, 8 h", "result": 235, "unit": "ng/mL"}, {"measurement": "concentration at 12 h", "setting": "5 mg/kg, Individual Compound 1 Plasma Concentration, daily oral 5 mg/kg, Day 1, Male, 12 h", "result": 206, "unit": "ng/mL"}, {"measurement": "concentration at 24 h", "setting": "5 mg/kg, Individual Compound 1 Plasma Concentration, daily oral 5 mg/kg, Day 1, Male, 24 h", "result": 26.5, "unit": "ng/mL"}, {"measurement": "concentration at 0.5 h", "setting": "5 mg/kg, Individual Compound 1 Plasma Concentration, daily oral 5 mg/kg, Day 14, Male, 0.5 h", "result": 205, "unit": "ng/mL"}, {"measurement": "concentration at 1 h", "setting": "5 mg/kg, Individual Compound 1 Plasma Concentration, daily oral 5 mg/kg, Day 14, Male, 1 h", "result": 254, "unit": "ng/mL"}, {"measurement": "concentration at 4 h", "setting": "5 mg/kg, Individual Compound 1 Plasma Concentration, daily oral 5 mg/kg, Day 14, Male, 4 h", "result": 512, "unit": "ng/mL"}, {"measurement": "concentration at 12 h", "setting": "5 mg/kg, Individual Compound 1 Plasma Concentration, daily oral 5 mg/kg, Day 14, Male, 12 h", "result": 169, "unit": "ng/mL"}, {"measurement": "concentration at 24 h", "setting": "5 mg/kg, Individual Compound 1 Plasma Concentration, daily oral 5 mg/kg, Day 14, Male, 24 h", "result": 11.1, "unit": "ng/mL"}, {"measurement": "concentration at […]", "setting": "5 mg/kg, Individual Compound 1 Plasma Concentration, daily oral 5 mg/kg, Day 14, Male, […]", "result": 26, "unit": "ng/mL"}, {"measurement": "concentration at 0.5 h", "setting": "5 mg/kg, Mean Compound 1 Plasma Concentration, oral 5 mg/kg, Day 1, 0.5 h, Male", "result": 237, "unit": "ng/mL"}, {"measurement": "concentration at 1 h", "setting": "5 mg/kg, Mean Compound 1 Plasma Concentration, oral 5 mg/kg, Day 1, 1 h, Male", "result": 194, "unit": "ng/mL"}, {"measurement": "concentration at 2 h", "setting": "5 mg/kg, Mean Compound 1 Plasma Concentration, oral 5 mg/kg, Day 1, 2 h, Male", "result": 254, "unit": "ng/mL"}, {"measurement": "concentration at 4 h", "setting": "5 mg/kg, Mean Compound 1 Plasma Concentration, oral 5 mg/kg, Day 1, 4 h, Male", "result": 408, "unit": "ng/mL"}, {"measurement": "concentration at 8 h", "setting": "5 mg/kg, Mean Compound 1 Plasma Concentration, oral 5 mg/kg, Day 1, 8 h, Male", "result": 276, "unit": "ng/mL"}, {"measurement": "concentration at 12 h", "setting": "5 mg/kg, Mean Compound 1 Plasma Concentration, oral 5 mg/kg, Day 1, 12 h, Male", "result": 195, "unit": "ng/mL"}, {"measurement": "concentration at 24 h", "setting": "5 mg/kg, Mean Compound 1 Plasma Concentration, oral 5 mg/kg, Day 1, 24 h, Male", "result": 25.6, "unit": "ng/mL"}, {"measurement": "concentration at […]", "setting": "5 mg/kg, Mean Compound 1 Plasma Concentration, oral 5 mg/kg, Day 1, […], Male", "result": 16, "unit": "ng/mL"}, {"measurement": "concentration at 0.5 h", "setting": "5 mg/kg, Mean Compound 1 Plasma Concentration, oral 5 mg/kg, Day 14, 0.5 h, Male", "result": 298, "unit": "ng/mL"}, {"measurement": "concentration at 1 h", "setting": "5 mg/kg, Mean Compound 1 Plasma Concentration, oral 5 mg/kg, Day 14, 1 h, Male", "result": 258, "unit": "ng/mL"}, {"measurement": "concentration at 2 h", "setting": "5 mg/kg, Mean Compound 1 Plasma Concentration, oral 5 mg/kg, Day 14, 2 h, Male", "result": 436, "unit": "ng/mL"}, {"measurement": "concentration at 4 h", "setting": "5 mg/kg, Mean Compound 1 Plasma Concentration, oral 5 mg/kg, Day 14, 4 h, Male", "result": 421, "unit": "ng/mL"}, {"measurement": "concentration at 8 h", "setting": "5 mg/kg, Mean Compound 1 Plasma Concentration, oral 5 mg/kg, Day 14, 8 h, Male", "result": 273, "unit": "ng/mL"}, {"measurement": "concentration at 12 h", "setting": "5 mg/kg, Mean Compound 1 Plasma Concentration, oral 5 mg/kg, Day 14, 12 h, Male", "result": 198, "unit": "ng/mL"}, {"measurement": "concentration at 24 h", "setting": "5 mg/kg, Mean Compound 1 Plasma Concentration, oral 5 mg/kg, Day 14, 24 h, Male", "result": 16.2, "unit": "ng/mL"}, {"measurement": "concentration at […]", "setting": "5 mg/kg, Mean Compound 1 Plasma Concentration, oral 5 mg/kg, Day 14, […], Male", "result": 27.2, "unit": "ng/mL"}, {"measurement": "AUC(0-inf)", "setting": "[1]", "result": 4850, "unit": "ng·h/mL"}, {"measurement": "AUC(0-t)", "setting": "[1]", "result": 4680, "unit": "ng·h/mL"}, {"measurement": "Cmax", "setting": "[1]", "result": 408, "unit": "ng/mL"}, {"measurement": "Tmax", "setting": "[1]", "result": 4, "unit": "h"}, {"measurement": "half-life", "setting": "[1]", "result": 4.52, "unit": "h"}, {"measurement": "AUC(0-inf)", "setting": "[2]", "result": 5120, "unit": "ng·h/mL"}, {"measurement": "AUC(0-t)", "setting": "[2]", "result": 5030, "unit": "ng·h/mL"}, {"measurement": "Cmax", "setting": "[2]", "result": 436, "unit": "ng/mL"}, {"measurement": "Tmax", "setting": "[2]", "result": 2, "unit": "h"}, {"measurement": "half-life", "setting": "[2]", "result": 3.77, "unit": "h"}, {"measurement": "concentration at 1 h", "setting": "15 mg/kg, Individual Compound 1 Plasma Concentration, daily oral 15 mg/kg, Day 1, Male, 1 h", "result": 614, "unit": "ng/mL"}, {"measurement": "concentration at 2 h", "setting": "15 mg/kg, Individual Compound 1 Plasma Concentration, daily oral 15 mg/kg, Day 1, Male, 2 h", "result": 759, "unit": "ng/mL"}, {"measurement": "concentration at 4 h", "setting": "15 mg/kg, Individual Compound 1 Plasma Concentration, daily oral 15 mg/kg, Day 1, Male, 4 h", "result": 1160, "unit": "ng/mL"}, {"measurement": "concentration at 8 h", "setting": "15 mg/kg, Individual Compound 1 Plasma Concentration, daily oral 15 mg/kg, Day 1, Male, 8 h", "result": 696, "unit": "ng/mL"}, {"measurement": "concentration at 12 h", "setting": "15 mg/kg, Individual Compound 1 Plasma Concentration, daily oral 15 mg/kg, Day 1, Male, 12 h", "result": 451, "unit": "ng/mL"}, {"measurement": "concentration at […]", "setting": "15 mg/kg, Individual Compound 1 Plasma Concentration, daily oral 15 mg/kg, Day 1, Male, […]", "result": 49.7, "unit": "ng/mL"}, {"measurement": "concentration at 0.5 h", "setting": "15 mg/kg, Individual Compound 1 Plasma Concentration, daily oral 15 mg/kg, Day 14, Male, 0.5 h", "result": 741, "unit": "ng/mL"}, {"measurement": "concentration at 1 h", "setting": "15 mg/kg, Individual Compound 1 Plasma Concentration, daily oral 15 mg/kg, Day 14, Male, 1 h", "result": 1020, "unit": "ng/mL"}, {"measurement": "concentration at 2 h", "setting": "15 mg/kg, Individual Compound 1 Plasma Concentration, daily oral 15 mg/kg, Day 14, Male, 2 h", "result": 1350, "unit": "ng/mL"}, {"measurement": "concentration at 4 h", "setting": "15 mg/kg, Individual Compound 1 Plasma Concentration, daily oral 15 mg/kg, Day 14, Male, 4 h", "result": 1160, "unit": "ng/mL"}, {"measurement": "concentration at 8 h", "setting": "15 mg/kg, Individual Compound 1 Plasma Concentration, daily oral 15 mg/kg, Day 14, Male, 8 h", "result": 1190, "unit": "ng/mL"}, {"measurement": "concentration at 12 h", "setting": "15 mg/kg, Individual Compound 1 Plasma Concentration, daily oral 15 mg/kg, Day 14, Male, 12 h", "result": 583, "unit": "ng/mL"}, {"measurement": "concentration at 24 h", "setting": "15 mg/kg, Individual Compound 1 Plasma Concentration, daily oral 15 mg/kg, Day 14, Male, 24 h", "result": 61.4, "unit": "ng/mL"}, {"measurement": "concentration at […]", "setting": "15 mg/kg, Individual Compound 1 Plasma Concentration, daily oral 15 mg/kg, Day 14, Male, […]", "result": 89.9, "unit": "ng/mL"}, {"measurement": "concentration at 0.5 h", "setting": "15 mg/kg, Mean Compound 1 Plasma Concentration, oral 15 mg/kg, Day 1, 0.5 h, Male", "result": 620, "unit": "ng/mL"}, {"measurement": "concentration at 1 h", "setting": "15 mg/kg, Mean Compound 1 Plasma Concentration, oral 15 mg/kg, Day 1, 1 h, Male", "result": 810, "unit": "ng/mL"}, {"measurement": "concentration at 2 h", "setting": "15 mg/kg, Mean Compound 1 Plasma Concentration, oral 15 mg/kg, Day 1, 2 h, Male", "result": 1060, "unit": "ng/mL"}]}]}
